Test results reported in ChEMBL document CHEMBL1149262, “Monoamine transporter binding, locomotor activity, and drug discrimination properties of 3-(4-substituted-phenyl)tropane-2-carboxylic acid methyl ester isomers” (J Med Chem, 2004).
The source made the active and inactive calls. No cut-off for these calls is given here.

Tests used:
[1] = system: Mus musculus; assay: Locomotor activity in CD1 mouse assessed as stimulation at 10 mg/kg, ip after 1 hr relative to control; assay type: functional; details: route intraperitoneal
[2] = system: Mus musculus; assay: Activity in CD1 mouse assessed as hypoactivity at 10 mg/kg, ip after 4 hrs; assay type: functional, organism-based; set-up: dose 10 mg/kg
[3] = system: Mus musculus; assay: Locomotor activity in CD1 mouse assessed as stimulation at 1 mg/kg, ip after 3 hrs relative to control; assay type: functional; details: route intraperitoneal
[4] = system: Mus musculus; assay: Locomotor activity in CD1 mouse assessed as stimulation at 1 mg/kg, ip after 1 hr relative to control; assay type: functional; details: route intraperitoneal
[5] = system: Mus musculus; assay: Activity in CD1 mouse assessed as circling at 100 mg/kg, ip after 4 hrs; assay type: functional, organism-based; set-up: dose 100 mg/kg
[6] = system: Rattus norvegicus; assay: Cocaine discrimination in ip dosed CD Albino rat; assay type: functional
[7] = biological target: Sodium-dependent serotonin transporter (Homo sapiens, UniProt P31645)
Description: Displacement of [3H]paroxetine from 5HTT

[8] = system: Mus musculus; assay: Locomotor activity in CD1 mouse assessed as stimulation at 10 mg/kg, ip after 3 hrs relative to control; assay type: functional; details: route intraperitoneal
[9] = system: Mus musculus; assay: Locomotor activity in CD1 mouse assessed as stimulation at 3 mg/kg, ip after 3 hrs relative to control; assay type: functional; details: route intraperitoneal
[10] = system: Mus musculus; assay: Locomotor activity in CD1 mouse assessed as stimulation at 3 mg/kg, ip after 1 hr relative to control; assay type: functional; details: route intraperitoneal
[11] = system: Mus musculus; assay: Locomotor activity in CD1 mouse assessed as stimulation at 3 mg/kg, ip after 4 hrs relative to control; assay type: functional; details: route intraperitoneal
[12] = system: Mus musculus; assay: Activity in CD1 mouse assessed as stereotypy at 10 mg/kg, ip after 4 hrs; assay type: functional, organism-based; set-up: dose 10 mg/kg
[13] = system: Mus musculus; assay: Locomotor activity in CD1 mouse assessed as stimulation at 10 mg/kg, ip after 2 hrs relative to control; assay type: functional; details: route intraperitoneal
[14] = biological target: Sodium-dependent dopamine transporter (Homo sapiens, UniProt Q01959); assay: Displacement of [3H]WIN-35428 from DAT
[15] = system: Mus musculus; assay: Locomotor activity in CD1 mouse assessed as stimulation at 30 mg/kg, ip after 2 hrs relative to control; assay type: functional; details: route intraperitoneal
[16] = system: Rattus norvegicus; assay: Drug discrimination effect in CD Albino rat assessed as percent of rat choosing cocaine lever at 3 mg/kg, ip; assay type: functional; details: route intraperitoneal
[17] = system: Mus musculus; assay: Activity in CD1 mouse assessed as hypoactivity at 100 mg/kg, ip after 4 hrs; assay type: functional, organism-based; set-up: dose 100 mg/kg
[18] = system: Mus musculus; assay: Locomotor activity in CD1 mouse assessed as stimulation at 30 mg/kg, ip after 3 hrs relative to control; assay type: functional; details: route intraperitoneal
[19] = system: Rattus norvegicus; assay: Drug discrimination effect in CD Albino rat assessed as percent of rat choosing cocaine lever at 10 mg/kg, ip; assay type: functional; details: route intraperitoneal
[20] = system: Mus musculus; assay: Activity in CD1 mouse assessed as straub tail at 100 mg/kg, ip after 4 hrs; assay type: functional, organism-based; set-up: dose 100 mg/kg
[21] = system: Mus musculus; assay: Activity in CD1 mouse assessed as convulsions at 100 mg/kg, ip after 4 hrs; assay type: functional, organism-based; set-up: dose 100 mg/kg
[22] = system: Mus musculus; assay: Activity in CD1 mouse assessed as death at 100 mg/kg, ip after 4 hrs; assay type: functional, organism-based; set-up: dose 100 mg/kg
[23] = system: Mus musculus; assay: Locomotor activity in CD1 mouse assessed as stimulation at 30 mg/kg, ip after 1 hr relative to control; assay type: functional; details: route intraperitoneal
[24] = system: Mus musculus; assay: Locomotor activity in CD1 mouse assessed as stimulation at 1 mg/kg, ip after 2 hrs relative to control; assay type: functional; details: route intraperitoneal
[25] = system: Mus musculus; assay: Locomotor activity in ip dosed CD1 mouse in peak hour; assay type: functional
[26] = system: Mus musculus; assay: Locomotor activity in CD1 mouse assessed as stimulation at 30 mg/kg, ip after 4 hrs relative to control; assay type: functional; details: route intraperitoneal
[27] = system: Mus musculus; assay: Locomotor activity in CD1 mouse assessed as stimulation at 10 mg/kg, ip after 4 hrs relative to control; assay type: functional; details: route intraperitoneal
[28] = system: Mus musculus; assay: Activity in CD1 mouse assessed as stereotypy at 100 mg/kg, ip after 4 hrs; assay type: functional, organism-based; set-up: dose 100 mg/kg
[29] = system: Rattus norvegicus; assay: Drug discrimination effect in CD Albino rat assessed as percent of rat choosing cocaine lever at 5.6 mg/kg, ip; assay type: functional; details: route intraperitoneal
[30] = system: Mus musculus; assay: Activity in CD1 mouse assessed as ptosis at 10 mg/kg, ip after 4 hrs; assay type: functional, organism-based; set-up: dose 10 mg/kg
[31] = system: Mus musculus; assay: Locomotor activity in CD1 mouse assessed as stimulation at 1 mg/kg, ip after 4 hrs relative to control; assay type: functional; details: route intraperitoneal
[32] = system: Mus musculus; assay: Activity in CD1 mouse assessed as ptosis at 100 mg/kg, ip after 4 hrs; assay type: functional, organism-based; set-up: dose 100 mg/kg
[33] = system: Mus musculus; assay: Locomotor activity in CD1 mouse assessed as stimulation at 3 mg/kg, ip after 2 hrs relative to control; assay type: functional; details: route intraperitoneal
[34] = biological target: Sodium-dependent noradrenaline transporter (Homo sapiens, UniProt P23975); assay: Displacement of [3H]nisoxetine from NET
[35] = system: Rattus norvegicus; assay: Drug discrimination effect in CD Albino rat assessed as percent of rat choosing cocaine lever at 1 mg/kg, ip; assay type: functional; details: route intraperitoneal
[36] = system: Mus musculus; assay: Activity in CD1 mouse assessed as hind limb splay at 100 mg/kg, ip after 4 hrs; assay type: functional, organism-based; set-up: dose 100 mg/kg; details: Hindlimb
[37] = system: Mus musculus; assay: Activity in CD1 mouse assessed as flattened body posture at 100 mg/kg, ip after 4 hrs; assay type: functional, organism-based; set-up: dose 100 mg/kg
[38] = system: Mus musculus; assay: Locomotor activity in CD1 mouse assessed as stimulation at 100 mg/kg, ip after 2 hrs relative to control; assay type: functional; details: route intraperitoneal
[39] = system: Rattus norvegicus; assay: Drug discrimination effect in CD Albino rat assessed as percent of rat choosing cocaine lever at 1.7 mg/kg, ip; assay type: functional; details: route intraperitoneal
[40] = system: Mus musculus; assay: Locomotor activity in CD1 mouse assessed as stimulation at 100 mg/kg, ip after 1 hr relative to control; assay type: functional; details: route intraperitoneal
[41] = system: Mus musculus; assay: Locomotor activity in CD1 mouse assessed as stimulation at 100 mg/kg, ip after 4 hrs relative to control; assay type: functional; details: route intraperitoneal
[42] = system: Mus musculus; assay: Locomotor activity in CD1 mouse assessed as stimulation at 100 mg/kg, ip after 3 hrs relative to control; assay type: functional; details: route intraperitoneal
[43] = system: Rattus norvegicus; assay: Drug discrimination effect in CD Albino rat assessed as percent of rat choosing cocaine lever at 30 mg/kg, ip; assay type: functional; details: route intraperitoneal
[44] = system: Mus musculus; assay: Activity in CD1 mouse assessed as slight or intermittent hyperactivity at 10 mg/kg, ip after 4 hrs; assay type: functional, organism-based; set-up: dose 10 mg/kg
[45] = system: Mus musculus; assay: Activity in CD1 mouse assessed as hyperactivity at 100 mg/kg, ip after 4 hrs; assay type: functional, organism-based; set-up: dose 100 mg/kg
[46] = system: Rattus norvegicus; assay: Drug discrimination effect in CD Albino rat assessed as percent of rat choosing cocaine lever at 17 mg/kg, ip; assay type: functional; details: route intraperitoneal

Chain of Sodium-dependent noradrenaline transporter (P23975 whole entry): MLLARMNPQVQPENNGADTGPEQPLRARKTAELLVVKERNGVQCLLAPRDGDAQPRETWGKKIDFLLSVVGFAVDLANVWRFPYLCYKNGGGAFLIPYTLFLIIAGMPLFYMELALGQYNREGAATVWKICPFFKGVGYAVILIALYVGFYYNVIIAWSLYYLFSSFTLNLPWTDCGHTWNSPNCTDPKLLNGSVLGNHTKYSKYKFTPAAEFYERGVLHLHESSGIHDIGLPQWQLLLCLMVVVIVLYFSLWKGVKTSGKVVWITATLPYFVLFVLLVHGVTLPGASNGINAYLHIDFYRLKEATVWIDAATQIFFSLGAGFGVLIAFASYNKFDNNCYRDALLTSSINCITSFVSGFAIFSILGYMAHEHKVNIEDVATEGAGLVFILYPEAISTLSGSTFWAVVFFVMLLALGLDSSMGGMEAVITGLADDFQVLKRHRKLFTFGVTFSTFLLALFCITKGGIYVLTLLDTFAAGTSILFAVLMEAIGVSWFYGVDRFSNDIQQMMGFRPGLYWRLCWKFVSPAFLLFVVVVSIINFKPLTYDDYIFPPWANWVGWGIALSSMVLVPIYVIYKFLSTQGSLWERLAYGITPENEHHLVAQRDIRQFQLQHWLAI
Chain of Sodium-dependent dopamine transporter (Q01959 whole entry): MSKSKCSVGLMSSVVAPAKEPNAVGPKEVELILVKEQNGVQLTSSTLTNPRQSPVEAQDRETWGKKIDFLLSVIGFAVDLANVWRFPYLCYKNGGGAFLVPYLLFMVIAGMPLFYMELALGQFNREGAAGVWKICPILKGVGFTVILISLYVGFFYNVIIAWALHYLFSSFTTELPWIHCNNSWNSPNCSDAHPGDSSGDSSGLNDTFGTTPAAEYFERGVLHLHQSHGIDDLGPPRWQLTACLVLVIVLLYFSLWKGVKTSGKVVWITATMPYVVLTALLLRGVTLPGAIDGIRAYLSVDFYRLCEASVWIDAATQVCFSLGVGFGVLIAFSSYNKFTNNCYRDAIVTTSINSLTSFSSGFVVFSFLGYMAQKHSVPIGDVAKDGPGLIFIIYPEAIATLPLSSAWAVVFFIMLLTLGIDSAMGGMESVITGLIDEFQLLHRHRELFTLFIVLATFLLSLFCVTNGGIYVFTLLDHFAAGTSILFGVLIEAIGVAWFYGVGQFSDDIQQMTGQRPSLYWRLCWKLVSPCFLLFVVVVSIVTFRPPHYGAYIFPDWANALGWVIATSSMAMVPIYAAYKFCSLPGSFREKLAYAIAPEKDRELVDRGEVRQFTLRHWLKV
Chain of Sodium-dependent serotonin transporter (P31645 whole entry): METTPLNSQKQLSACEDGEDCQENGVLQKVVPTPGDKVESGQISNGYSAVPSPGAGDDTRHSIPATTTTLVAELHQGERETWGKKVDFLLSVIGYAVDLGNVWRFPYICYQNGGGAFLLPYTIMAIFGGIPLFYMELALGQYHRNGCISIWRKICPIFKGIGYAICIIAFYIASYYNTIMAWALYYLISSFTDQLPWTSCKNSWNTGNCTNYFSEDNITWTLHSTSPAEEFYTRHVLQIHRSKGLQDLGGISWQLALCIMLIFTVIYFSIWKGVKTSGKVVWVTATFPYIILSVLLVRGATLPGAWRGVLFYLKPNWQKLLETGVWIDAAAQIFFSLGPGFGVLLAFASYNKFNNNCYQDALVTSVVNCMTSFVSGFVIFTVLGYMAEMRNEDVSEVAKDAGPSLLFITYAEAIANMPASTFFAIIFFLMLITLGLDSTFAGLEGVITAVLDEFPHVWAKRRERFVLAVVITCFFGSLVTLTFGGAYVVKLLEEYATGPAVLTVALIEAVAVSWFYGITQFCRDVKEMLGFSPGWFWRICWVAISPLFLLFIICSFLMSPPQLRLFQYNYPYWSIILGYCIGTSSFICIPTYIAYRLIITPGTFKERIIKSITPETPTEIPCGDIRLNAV

COC(=O)[C@H]1C2CCC(C[C@@H]1c1ccc(Br)cc1)N2C (some centres undefined) was tested, and the Activity [1] was 49%, the Activity [2] was “Active” and the Activity [3] was 56%. For the same compound, the Activity [4] was 9%, the Activity [5] was “Active” and the ED50 [6] was 7.29 mg/kg. It also gave an IC50 [7] of 570 nM, a Ki [7] of 140 nM and an Activity [8] of 267%. The Activity [9] was 100%, the Activity [10] was 19% and the Activity [11] was 29%. For the same compound, the Activity [12] was “Active”, the Activity [13] was 268% and the IC50 [14] was 15.7 nM. The Activity [15] was 640%, the Activity [16] was 25% and the Activity [17] was “Active”. The Activity [18] was 901%, the Activity [19] was 86% and the Activity [20] was “Active”. For the same compound, the Activity [21] was “Active”, the Activity [22] was “Active” and the Activity [23] was -33%. It also gave an Activity [24] of 26%, an ED50 [25] of 10 mg/kg and an Activity [26] of 373%. The Activity [27] was 74%, the Activity [28] was “Active” and the Activity [29] was 17%. The Activity [30] was “Active”, the Activity [31] was -5% and the Activity [32] was “Active”. The Activity [33] was 123%.

Work on COC(=O)[C@H]1[C@H]2CCC(C[C@H]1c1ccc(C)cc1)N2C yielded an IC50 [34] of 3850 nM, a Ki [34] of 1930 nM and an Activity [1] of 8%. The Activity [3] was 118%, the Activity [4] was -15% and the Activity [8] was 120%. The Activity [35] was 13%, the Activity [9] was 47% and the Activity [36] was “Active”. For the same compound, the Activity [10] was 6%, the Activity [37] was “Active” and the Activity [11] was 56%. It also gave an Activity [13] of 96%, an IC50 [14] of 23.4 nM and an Activity [15] of -36%. It also gave an Activity [16] of 0%, an Activity [18] of 78% and an Activity [19] of 0%. The Activity [21] was “Active”, the Activity [22] was “Active” and the Activity [23] was -57%. The Activity [24] was 110%, the Activity [26] was -35% and the Activity [27] was -36%. The Activity [29] was 13%, the Activity [31] was -51% and the Activity [32] was “Active”. For the same compound, the Activity [33] was 132%.

COC(=O)[C@@H]1C2CCC(C[C@H]1c1ccc(C)cc1)N2C (some centres undefined) gave an IC50 [34] of 270 nM, a Ki [34] of 160 nM and an Activity [1] of 294%. The Activity [5] was “Active”, the ED50 [6] was 7.73 mg/kg and the Activity [38] was 436%. The Activity [8] was 108%, the Activity [35] was 0% and the Activity [9] was -6%. It also gave an Activity [10] of 28%, an Activity [39] of 14% and an Activity [40] of 843%. For the same compound, the Activity [11] was -41%, the Activity [13] was 149% and the IC50 [14] was 10.2 nM. It also gave an Activity [15] of 147%, an Activity [41] of 18% and an Activity [42] of 263%. It also gave an Activity [43] of 100%, an Activity [16] of 29% and an Activity [18] of 5%. The Activity [19] was 43%, the Activity [44] was “Active” and the Activity [23] was 482%. The ED50 [25] was 14.7 mg/kg, the Activity [45] was “Active” and the Activity [26] was -66%. The Activity [27] was 22%, the Activity [46] was 75% and the Activity [28] was “Active”. For the same compound, the Activity [29] was 43% and the Activity [33] was 29%.
